Measurements as given in patent US6759568B2, “High estrogen-sensitive medaka fish” (President of Hiroshima University, priority 2000, dated 2004).

What was measured:
Assay type in all cases: in vivo, Oryzias latipes
[1] = test system: fertilized eggs (A), strain A of the transgenic medaka fish crossed with wild medaka fish; assay: Formation of thrombus by 17β-estradiol in fertilized eggs (A) of strain A transgenic medaka fish; conditions: for fertilized eggs that caused the formation of the thrombi: fertilized eggs (A), 25° C., 3 days
Protocol: (§1) Medaka physiological saline solutions (40 mL for each) containing 17 β-estradiol in an amount of 2 ng/L, 20 ng/L, 200 ng/L, 2 μg/L, 1 mg/L, and 4 mg/L were supplied in culture plates, respectively. Three sets were prepared for each concentration. About 30 fertilized eggs (W) of 12-hours after fertilization which were obtained by mutual mating between wild medaka fish, were placed in the first set of culture plates. About 30 fertilized eggs (A) of 12-hours after fertilization which were obtained by crossing the strain A of the transgenic medaka fish with wild medaka fish, were placed in the second set of culture plates. About 30 fertilized eggs (C) of 12-hours after fertilization which were obtained by crossing the strain C of the transgenic medaka fish with wild medaka fish, were placed in the third set of culture plates. After the culture plates were incubated at 25° C. for 3 days, medaka embryos were checked under dissecting microscope with respect to formation of a thrombus. In almost 100% of the fertilized eggs (W), one or more thrombi were formed at the concentration of 4 mg/L of 17β-estradiol, but were not observed at the concentration of less than 4 mg/L. 1%, 3%, 8%, 49%, 55%, and 100% of the fertilized eggs (A) caused the formation of the thrombi at the concentrations of 2 ng/L, 20 ng/L, 200 ng/L, 2 μg/L, 1 mg/L, and 4 mg/L of 17β-estradiol, respectively. 19%, 41%, 75%, 73%, 60%, and 100% of the fertilized eggs (C) caused the formation of the thrombi at the same concentrations as mentioned above, respectively.

[2] = test system: fertilized eggs (W) of wild medaka fish; assay: Formation of thrombus by 17β-estradiol in fertilized eggs (W) of wild medaka fish; conditions: 25° C., 3 days
Protocol: as §1, with “19%, 41%, 75%, 73%, 60%, and 100% of the fertilized eggs (C) caused the formation of the thrombi at the same concentrations as mentioned above, respectively.” left out

[3] = test system: fertilized eggs (C), strain C of the transgenic medaka fish crossed with wild medaka fish; assay: Formation of thrombus by 17β-estradiol in fertilized eggs (C) of strain C transgenic medaka fish; conditions: for fertilized eggs that caused the formation of the thrombi: fertilized eggs (C), 25° C., 3 days
Protocol: as §1

Question: How did the “estrogen sensitivity relative to that of the wild medaka fish” value ([1]; fertilized eggs (A) versus wild medaka fish) turn out when `C[C@]12CC[C@@H]3c4ccc(O)cc4CC[C@H]3[C@@H]1CC[C@@H]2O` [17β-estradiol] was run?
Answer: Its value is “thousand times”.

Question: What about the “fertilized eggs that caused the formation of the thrombi” value ([1]; 2 ng/L) of the same compound?
Answer: Its value is 1%.

Question: And the “fertilized eggs that caused the formation of the thrombi” value ([1]; 20 ng/L)?
Answer: Its value is 3%.

Question: What about the “fertilized eggs that caused the formation of the thrombi” value ([1]; 200 ng/L) of the same compound?
Answer: Its value is 8%.

Question: What about the “fertilized eggs that caused the formation of the thrombi” value ([1]; 2 μg/L) of the same compound?
Answer: The value was 49%.

Question: What about the “fertilized eggs that caused the formation of the thrombi” value ([1]; 1 mg/L) of the same compound?
Answer: Its value is 55%.

Question: And the “fertilized eggs that caused the formation of the thrombi” value ([1]; 4 mg/L)?
Answer: The value was 100%.

Question: What about the “fertilized eggs in which one or more thrombi were formed” value ([2]; 4 mg/L) of the same compound?
Answer: Its value is about 100%.

Question: And the formation of thrombi ([2]; concentration of less than 4 mg/L)?
Answer: Its formation of thrombi is “not observed”.

Question: And the “estrogen sensitivity relative to that of the wild medaka fish” value ([3]; fertilized eggs (C) versus wild medaka fish)?
Answer: The value was “hundred thousand times”.

Question: What about the “fertilized eggs that caused the formation of the thrombi” value ([3]; 2 ng/L) of the same compound?
Answer: The value was 19%.

Question: What about the “fertilized eggs that caused the formation of the thrombi” value ([3]; 20 ng/L) of the same compound?
Answer: The value was 41%.

Question: What about the “fertilized eggs that caused the formation of the thrombi” value ([3]; 200 ng/L) of the same compound?
Answer: Its value is 75%.

Question: And the “fertilized eggs that caused the formation of the thrombi” value ([3]; 2 μg/L)?
Answer: The value was 73%.

Question: What about the “fertilized eggs that caused the formation of the thrombi” value ([3]; 1 mg/L) of the same compound?
Answer: Its value is 60%.

Question: What about the “fertilized eggs that caused the formation of the thrombi” value ([3]; 4 mg/L) of the same compound?
Answer: The value was 100%.
